In US20050215543A1, “Methods of treating HIV infection” (priority 2004, published 2005):

Legend:
uninfected cells = assay: Cytotoxicity assay of drug combinations, uninfected cells, XTT assay; format: cell-based; details: combination with Compound 1 at the highest concentrations tested, 6 days
Experimental: Drug Susceptibility and Cytotoxicity Assays. […] Each drug ratio consisted of an array of 3-fold serial dilutions, and was performed in quadruplicate. The plates were incubated at 37° C./5% CO2. […] On day-five post-infection, 20 μl from each well was harvested and quantitated by a reverse transcriptase (RT) assay, or in samples involving non-nucleoside RT inhibitors, an MTS assay. The PM-1 cells infected with HIV-1 Bal and used for studying the combinations with CCR5 inhibitors were incubated for six days. On day-six post-infection, 20 μl from each well was harvested, 20- and 50-fold diluted and quantitated by p24 assay. Cytotoxicity assays were performed using uninfected cells, exposed to the same drug combinations, and incubated for six days. Cell viability was determined by an XTT assay. The CC50 values were calculated by using the exponential form of the median effect equation as mentioned below for calculation of EC50.

HIV-1 LAI = assay: microbe, parasite or virus in culture; details: for Combination Indices at % HIV Inhibition (Confidence Interval) 50%: 50% HIV inhibition; for Combination Indices at % HIV Inhibition (Confidence Interval) 50% / Combination Indices at % HIV Inhibition (Confidence Interval) 75% / Combination Indices at % HIV Inhibition (Confidence Interval) 90%: 95% CI in parenthesis; for Combination Indices at % HIV Inhibition (Confidence Interval) 75%: 75% HIV inhibition; for Combination Indices at % HIV Inhibition (Confidence Interval) 90%: 90% HIV inhibition
HIV-1 Bal = assay: Drug susceptibility assay, PM-1 cells infected with HIV-1 Bal, p24 assay readout (combinations with CCR5 inhibitors); format: cell-based; details: for Combination Indices at % HIV Inhibition (Confidence Interval) 50%: 50% HIV inhibition; for Combination Indices at % HIV Inhibition (Confidence Interval) 50% / Combination Indices at % HIV Inhibition (Confidence Interval) 75% / Combination Indices at % HIV Inhibition (Confidence Interval) 90%: p24, 95% CI in parenthesis; for Combination Indices at % HIV Inhibition (Confidence Interval) 75%: 75% HIV inhibition; for Combination Indices at % HIV Inhibition (Confidence Interval) 90%: 90% HIV inhibition
Experimental: Virus and cell lines. The T-cell lines, MT-2 and PM-1 were obtained through the AIDS Research and Reference Reagent Program, NIAID, and were contributed by Dr. D. Richman and Dr. R. Gallo, respectively. Both cell lines were cultured in RPMI 1640 medium supplemented with 10% fetal bovine serum, 2 mM L-glutamine and sub-cultured twice a week. The LAI strain of HIV-1 was obtained from the Fred Hutchinson Cancer Research Center, and the Bal strain was from NIH. Both virus stocks were amplified and titered in MT-2 cells (LAI) and PM-1 cells (Bal) using a virus infectivity assay.
Drug Susceptibility and Cytotoxicity Assays. For drug susceptibility assays, MT-2 cells were infected with HIV-1 LAI (or PM-1 cells with HIV-1 Bal) at an MOI of 0.005, and seeded into 96-well microtiter plates (0.1×10^6 cells/ml) containing serial dilutions of test compounds. […] Each drug ratio consisted of an array of 3-fold serial dilutions, and was performed in quadruplicate. The plates were incubated at 37° C./5% CO2. The MT-2 cells infected with HIV-1 LAI were incubated for 5 days. On day-five post-infection, 20 μl from each well was harvested and quantitated by a reverse transcriptase (RT) assay, or in samples involving non-nucleoside RT inhibitors, an MTS assay. The PM-1 cells infected with HIV-1 Bal and used for studying the combinations with CCR5 inhibitors were incubated for six days. On day-six post-infection, 20 μl from each well was harvested, 20- and 50-fold diluted and quantitated by p24 assay. Cytotoxicity assays were performed using uninfected cells, exposed to the same drug combinations, and incubated for six days. Cell viability was determined by an XTT assay. The CC50 values were calculated by using the exponential form of the median effect equation as mentioned below for calculation of EC50.
Analysis of Drug Combination Effects. For determination of CI values, drugs were diluted in a fixed ratio and multiple ratios were analyzed. The drug serial dilutions spanned a range of concentrations near the EC50 value of each compound, so that equivalent antiviral activities could be compared. Concentration-response curves were estimated for each individual drug and every combination using the median-effect equation. The equation was fit using a nonlinear regression routine (Proc Nlin) in PC SAS version 8.01 (SAS Institute Inc., SAS Version 8.01, Cary, N.C.: SAS Institute Inc., 1990).
In this equation, Fa stands for “fraction affected,” and represents the fraction of the viral load that has been inactivated. […] ED50 is drug concentration that is expected to reduce the amount of virus by 50%, and m is a parameter that reflects the slope of the concentration-response curve.
To assess antiviral effects of different drug combination treatments, combination indices (CIs) were calculated according to Chou and Rideout. The combination index was computed as CI=[D]1/[Dm]1+[D]2/[Dm]2
In this equation [Dm]1 and [Dm]2 are the concentrations of drugs that would individually produce a specific level of effect, while [D]1 and [D]2 are the concentrations of drugs in combination that would produce the same level of effect.
Theoretically, additivity is implied if the CI is equal to one, synergy if the CI is less than one, and antagonism if the CI is greater than one. […] At best, we can construct a range that contains the likely values for the CI, given the noise in the data. In this report, these ranges are reported in parentheses next to each point estimate of the CI. […] If the range fell entirely above 1.0, we would infer antagonistic behavior. If the range were to include 1.0, we would infer additivity.
In carrying out the combination experiments below, the EC50 for Compound 1 and each comparator compound was determined during the course of each study, and used in the subsequent data analysis.

[1] = combination with Compound 1, EC50 ratio 1:1 (Compound 1:comparator)
[2] = combination with Compound 1, EC50 ratio 1:1
[3] = combination with Compound 1, EC50 ratio 1:2.5
[4] = combination with Compound 1, EC50 ratio 2.5:1
[5] = combination with Compound 1, EC50 ratio 1:1, PM-1/HIV-1 Bal
[6] = combination with Compound 1, EC50 ratio 1:2.5, PM-1/HIV-1 Bal
[7] = combination with Compound 1, EC50 ratio 2.5:1, PM-1/HIV-1 Bal

Q: Which results are given for `CON(Cc1ccc(F)cc1)C(=O)C=C(O)C(=O)O` [Compound 2, 3-[(4-fluorobenzyl)methoxycarbamoyl]-2-hydroxyacrylic acid]?
A: cytotoxicity of the drug combination (uninfected cells): No significant cytotoxicity; EC50 (HIV-1 LAI; Human immunodeficiency virus 1, MT2, 120 h): 39 nM; Combination Indices at % HIV Inhibition (Confidence Interval) 50% (HIV-1 LAI; [1]): 0.92 (0.77, 1.06); Combination Indices at % HIV Inhibition (Confidence Interval) 75% (HIV-1 LAI; [2]): 0.90 (0.70, 1.10); Combination Indices at % HIV Inhibition (Confidence Interval) 90% (HIV-1 LAI; [2]): 0.89 (0.58, 1.21); Combination Indices at % HIV Inhibition (Confidence Interval) 50% (HIV-1 LAI; [3]): 0.71 (0.60, 0.82); Combination Indices at % HIV Inhibition (Confidence Interval) 75% (HIV-1 LAI; [3]): 0.66 (0.51, 0.80); Combination Indices at % HIV Inhibition (Confidence Interval) 90% (HIV-1 LAI; [3]): 0.61 (0.40, 0.82); Combination Indices at % HIV Inhibition (Confidence Interval) 50% (HIV-1 LAI; [4]): 0.41 (0.36, 0.47); Combination Indices at % HIV Inhibition (Confidence Interval) 75% (HIV-1 LAI; [4]): 0.41 (0.33, 0.48); Combination Indices at % HIV Inhibition (Confidence Interval) 90% (HIV-1 LAI; [4]): 0.40 (0.28, 0.52)

Q: For enfuvirtide, which “cytotoxicity of the drug combination” value (uninfected cells) is on record?
A: The value was “No significant cytotoxicity”.

Q: What about the “Combination Indices at % HIV Inhibition (Confidence Interval) 50%” value (HIV-1 LAI; [1]) of the same molecule?
A: The value was 0.53 (0.46, 0.59).

Q: And the “Combination Indices at % HIV Inhibition (Confidence Interval) 75%” value (HIV-1 LAI; [2])?
A: The value was 0.51 (0.42, 0.59).

Q: What about the “Combination Indices at % HIV Inhibition (Confidence Interval) 90%” value (HIV-1 LAI; [2]) of the same molecule?
A: Its value is 0.57 (0.42, 0.72).

Q: And the “Combination Indices at % HIV Inhibition (Confidence Interval) 50%” value (HIV-1 LAI; [3])?
A: The value was 0.27 (0.21, 0.32).

Q: And the “Combination Indices at % HIV Inhibition (Confidence Interval) 75%” value (HIV-1 LAI; [3])?
A: The value was 0.32 (0.22, 0.42).

Q: What about the “Combination Indices at % HIV Inhibition (Confidence Interval) 90%” value (HIV-1 LAI; [3]) of the same molecule?
A: The value was 0.43 (0.22, 0.64).

Q: What about the “Combination Indices at % HIV Inhibition (Confidence Interval) 50%” value (HIV-1 LAI; [4]) of the same molecule?
A: The value was 0.41 (0.30, 0.51).

Q: What about the “Combination Indices at % HIV Inhibition (Confidence Interval) 75%” value (HIV-1 LAI; [4]) of the same molecule?
A: The value was 0.57 (0.37, 0.78).

Q: And the “Combination Indices at % HIV Inhibition (Confidence Interval) 90%” value (HIV-1 LAI; [4])?
A: The value was 0.90 (0.36, 1.44).

Q: And the EC50 (HIV-1 LAI; single drug, MT-2 cells, HIV-1 LAI, MOI 0.005, 5 days, RT assay)?
A: Its EC50 is 3 nM.

Q: How did the “Combination Indices at % HIV Inhibition (Confidence Interval) 50%” value (HIV-1 Bal; [5]) turn out when `COC[C@@H](c1ccc(C(F)(F)F)cc1)N1CCN(C2(C)CCN(C(=O)c3c(C)ncnc3C)CC2)C[C@@H]1C` [Sch-D] was run?
A: The value was 0.49 (0.43, 0.55).

Q: What about the “Combination Indices at % HIV Inhibition (Confidence Interval) 75%” value (HIV-1 Bal; [5]) of the same molecule?
A: Its value is 0.41 (0.34, 0.49).

Q: What about the “Combination Indices at % HIV Inhibition (Confidence Interval) 90%” value (HIV-1 Bal; [5]) of the same molecule?
A: Its value is 0.36 (0.26, 0.46).

Q: And the “Combination Indices at % HIV Inhibition (Confidence Interval) 50%” value (HIV-1 Bal; [6])?
A: Its value is 0.71 (0.62, 0.81).

Q: And the “Combination Indices at % HIV Inhibition (Confidence Interval) 75%” value (HIV-1 Bal; [6])?
A: The value was 0.55 (0.44, 0.65).

Q: And the “Combination Indices at % HIV Inhibition (Confidence Interval) 90%” value (HIV-1 Bal; [6])?
A: Its value is 0.44 (0.31, 0.57).

Q: And the “Combination Indices at % HIV Inhibition (Confidence Interval) 50%” value (HIV-1 Bal; [7])?
A: Its value is 0.51 (0.45, 0.56).

Q: And the “Combination Indices at % HIV Inhibition (Confidence Interval) 75%” value (HIV-1 Bal; [7])?
A: Its value is 0.55 (0.47, 0.63).

Q: And the “Combination Indices at % HIV Inhibition (Confidence Interval) 90%” value (HIV-1 Bal; [7])?
A: Its value is 0.61 (0.46, 0.75).

Q: What about the EC50 (HIV-1 Bal; single drug, PM-1 cells, HIV-1 Bal, MOI 0.005, 6 days, p24 assay (CCR5 inhibitors)) of the same molecule?
A: The EC50 was 0.5 nM.

Q: What about the “Overall Result” value (HIV-1 Bal; two-drug combination with Compound 1, all ratios and effect levels, PM-1/HIV-1 Bal, p24 assay) of the same molecule?
A: The value was “moderate synergistic to synergistic”.
